# Measured values taken from patent US20250034135A1, “ANTI-APOPTOTIC PROTEIN BCL-2 INHIBITOR, PHARMACEUTICAL COMPOSITION AND USES THEREOF” (HANGZHOU HEALZEN THERAPEUTICS CO., LTD., priority 2021, published 2025).
# How the values were obtained:
# BCL2 = BCL2 (Homo sapiens (Human), UniProt P10415); test: Molecular level activity test of anti-apoptotic protein BCL2 (HTRF, binding to Bim peptide); details: HTRF, binding of BCL2 to Bim peptide; read-out: BCL2 nM (inhibitory activity, IC50)
# In short: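 Disruption of the BCL2/Bim peptide interaction is detected by homogeneous time-resolved fluorescence, using anti-His and streptavidin-XL665 reagents against His-tagged protein and biotin-tagged peptide. Compound exposure lasts 1 h before reagent addition; plates then sit 4 h at room temperature.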
# BCL-XL = BCL-XL (Homo sapiens (Human), UniProt Q07817); test: BCL-XL enzyme molecular level activity test (HTRF, binding to BIM peptide); details: binding of BCL-XL to BIM peptide, values in nM, read-out: BCL-XL inhibitory activity (IC50)
# Protocol: In a white shallow 384-well plate, a total reaction volume was 10 μL. Specifically, it included 2 μL of the compound to be tested (2% DMSO), […] His-tagged recombinant protein, and 4 μL Biotin-tagged BIM protein peptide. After 1 hour of reaction, 5 μL of each Anti-His and streptavidin-tagged XL665 antibody diluents diluted with a detection buffer were added. After incubating at room temperature for 4 hours, the values were read using the Envision multifunctional microplate reader to detect the effect of the compound to be tested on the binding ability of BCL-XL to BIM protein peptides. The Envision parameter settings were exciting light at 320 nm, and emitting light at 615 nm and 665 nm. The binding ability of anti-apoptotic proteins to Bim protein peptides was indirectly reflected by the signal ratio of 665 nm and 615 nm. In the reaction, background wells without BCL2 and active wells for full binding of recombinant proteins without compounds and Bim protein peptides were set up.
# BCL-XL, sequence (Q07817 whole entry): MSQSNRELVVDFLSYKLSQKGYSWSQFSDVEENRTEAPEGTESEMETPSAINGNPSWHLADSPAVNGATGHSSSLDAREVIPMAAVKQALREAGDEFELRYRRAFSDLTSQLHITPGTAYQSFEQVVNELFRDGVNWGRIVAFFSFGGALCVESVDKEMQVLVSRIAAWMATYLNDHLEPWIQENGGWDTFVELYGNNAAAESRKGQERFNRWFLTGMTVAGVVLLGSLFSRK
# BCL2, sequence (P10415 whole entry): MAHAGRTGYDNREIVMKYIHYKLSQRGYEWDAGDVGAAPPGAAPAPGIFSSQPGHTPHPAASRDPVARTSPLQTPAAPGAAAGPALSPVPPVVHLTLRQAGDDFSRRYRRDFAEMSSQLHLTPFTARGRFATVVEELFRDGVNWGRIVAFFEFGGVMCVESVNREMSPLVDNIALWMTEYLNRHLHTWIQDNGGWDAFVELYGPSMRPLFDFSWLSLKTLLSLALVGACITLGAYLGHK
IC50 (BCL2) [nM],IC50 (BCL-XL) [nM],SMILES
< 10,> 500,"CC(C)c1ccccc1[C@@H]1CN(Cc2ccc3c(c2)OCCO3)CCN1C1CC2(CCN(c3cc(Oc4cnc5[nH]ccc5c4)c(C(=O)NS(=O)(=O)c4ccc(NCC5(F)CCOCC5)c([N+](=O)[O-])c4)cc3F)CC2)C1 [compound 207, (R)-2-((1H-pyrrolo[2,3-b]pyrid-5-yl)oxy)-4-(2-(4-((2,3-dihydrobenzo[b][1,4]dioxane-6-yl)methyl)-2-(2-isopropylphenyl)piperazin-1-yl)-7-azaspiro[3.5]non-7-yl)-5-fluoro-N-((4-(((4-fluorotetrahydro-2H-pyran-4-yl)methyl)amino)-3-nitrophenyl)sulfonyl)benzamide]"
< 10,> 500,COc1ccc(CN2CCN(C3CC4(CCN(c5cc(Oc6cnc7[nH]ccc7c6)c(C(=O)NS(=O)(=O)c6ccc(NCC7(F)CCOCC7)c([N+](=O)[O-])c6)cc5F)CC4)C3)[C@H](c3ccccc3C(C)C)C2)c2c1OCO2 [compound 205]
< 10,> 500,"COc1ccc(CN2CCN(C3CC4(CCN(c5cc(Oc6cnc7[nH]ccc7c6)c(C(=O)NS(=O)(=O)c6ccc(NCC7(F)CCOCC7)c([N+](=O)[O-])c6)cc5F)CC4)C3)C(c3ccccc3C(C)C)C2)cc1 (stereo not shown) [compound 066, 2-((1H-pyrrolo[2,3-b]pyrid-5-yl)oxy)-5-fluoro-N-((4-(((4-fluorotetrahydro-2H-pyran-4-yl)methyl)amino)-3-nitrophenyl)sulfonyl)-4-(2-(2-(2-isopropylphenyl)-4-(4-methoxybenzyl)piperazin-1-yl)-7-azaspiro[3.5]non-7-yl)benzamide]"
< 10,> 500,"CC(C)c1ccccc1[C@@H]1CN(Cc2ccc3c(c2)OCO3)CCN1C1CC2(CCN(c3cc(Oc4cnc5[nH]ccc5c4)c(C(=O)NS(=O)(=O)c4ccc(NC[C@H]5CC[C@](C)(O)CC5)c([N+](=O)[O-])c4)cc3F)CC2)C1 [compound 224, 2-((1H-pyrrolo[2,3-b]pyrid-5-yl)oxy)-4-(2-((R)-4-(benzo[d][1,3]dioxocyclopent-5-ylmethyl)-2-(2-isopropylphenyl)piperazin-1-yl)-7-azaspiro[3.5]non-7-yl)-5-fluoro-N-((4-((((1r, 4r)-4-hydroxy-4-methylcyclohexyl)methyl)amino)-3-nitrophenyl)sulfonyl)benzamide]"
< 10,> 500,"CC(C)c1ccccc1[C@@H]1CN(Cc2cccc3c2OCO3)CCN1C1CC2(CCN(c3cc(Oc4cnc5[nH]ccc5c4)c(C(=O)NS(=O)(=O)c4ccc(NCC5(F)CCOCC5)c([N+](=O)[O-])c4)cc3F)CC2)C1 [compound 204, (R)-2-((1H-pyrrolo[2,3-b]pyrid-5-yl)oxy)-4-(2-(4-(benzo[d][1,3]dioxocyclopent-4-ylmethyl)-2-(2-isopropylphenyl)piperazin-1-yl)-7-azaspiro[3.5]non-7-yl)-5-fluoro-N-((4-(((4-fluorotetrahydro-2H-pyran-4-yl)methyl)amino)-3-nitrophenyl)sulfonyl)benzamide]"
< 10,> 500,"CC(C)c1ccccc1[C@@H]1CN(Cc2ccc(C(F)(F)F)cc2)CCN1C1CC2(CCN(c3cc(Oc4cnc5[nH]ccc5c4)c(C(=O)NS(=O)(=O)c4ccc(NC[C@H]5CC[C@](C)(O)CC5)c([N+](=O)[O-])c4)cc3F)CC2)C1 [compound 216, 2-((1H-pyrrolo[2,3-b]pyrid-5-yl)oxy)-5-fluoro-N-((4-((((1r, 4r)-4-hydroxy-4-methylcyclohexyl)methyl)amino)-3-nitrophenyl)sulfonyl)-4-(2-((R)-2-(2-isopropylphenyl)-4-(4-(trifluoromethyl)benzyl)piperazin-1-yl)-7-azaspiro[3.5]non-7-yl)benzamide]"
< 10,> 500,"CC(C)c1ccccc1[C@@H]1CN(Cc2ccc(C(F)(F)F)cc2)CCN1C1CC2(CCN(c3cc(Oc4cnc5[nH]ccc5c4)c(C(=O)NS(=O)(=O)c4ccc(NCC5(F)CCOCC5)c([N+](=O)[O-])c4)cc3F)CC2)C1 [compound 188, (R)-2-((1H-pyrrolo[2,3-b]pyrid-5-yl)oxy)-5-fluoro-N-((4-(((4-fluorotetrahydro-2H-pyran-4-yl)methyl)amino)-3-nitrophenyl)sulfonyl)-4-(2-(2-(2-isopropylphenyl)-4-(4-(trifluoromethyl)benzyl)piperazin-1-yl)-7-azaspiro[3.5]non-7-yl)benzamide]"
< 10,> 500,"CC(C)c1ccccc1[C@@H]1CN(Cc2cccc3c2OCCO3)CCN1C1CC2(CCN(c3cc(Oc4cnc5[nH]ccc5c4)c(C(=O)NS(=O)(=O)c4ccc(NC[C@H]5CC[C@](C)(O)CC5)c([N+](=O)[O-])c4)cc3F)CC2)C1 [compound 227, 2-((1H-pyrrolo[2,3-b]pyrid-5-yl)oxy)-4-(2-((R)-4-((2,3-dihydrobenzo[b][1,4]dioxane-5-yl)methyl)-2-(2-isopropylphenyl)piperazin-1-yl)-7-azaspiro[3.5]non-7-yl)-5-fluoro-N-((4-((((1r, 4r)-4-hydroxy-4-methylcyclohexyl)methyl)amino)-3-nitrophenyl)sulfonyl)benzamide]"
< 10,> 500,"CC(C)c1ccccc1[C@@H]1CN(Cc2ccc3c(c2)OCCO3)CCN1C1CC2(CCN(c3cc(Oc4cnc5[nH]ccc5c4)c(C(=O)NS(=O)(=O)c4ccc(NC[C@H]5CC[C@](C)(O)CC5)c([N+](=O)[O-])c4)cc3F)CC2)C1 [compound 226, 2-((1H-pyrrolo[2,3-b]pyrid-5-yl)oxy)-4-(2-((R)-4-((2,3-dihydrobenzo[b][1,4]dioxane-6-yl)methyl)-2-(2-isopropylphenyl)piperazin-1-yl)-7-azaspiro[3.5]non-7-yl)-5-fluoro-N-((4-((((1r, 4r)-4-hydroxy-4-methylcyclohexyl)methyl)amino)-3-nitrophenyl)sulfonyl)benzamide]"
< 10,> 500,"CC(C)c1ccccc1[C@@H]1CN(Cc2c(F)cccc2F)CCN1C1CC2(CCN(c3cc(Oc4cnc5[nH]ccc5c4)c(C(=O)NS(=O)(=O)c4ccc(NC[C@H]5CC[C@](C)(O)CC5)c([N+](=O)[O-])c4)cc3F)CC2)C1 [compound 217, 2-((1H-pyrrolo[2,3-b]pyrid-5-yl)oxy)-4-(2-((R)-4-(2,6-difluorobenzyl)-2-(2-isopropylphenyl)piperazin-1-yl)-7-azaspiro[3.5]non-7-yl)-5-fluoro-N-((4-((((1r, 4r)-4-hydroxy-4-methylcyclohexyl)methyl)amino)-3-nitrophenyl)sulfonyl)benzamide]"
< 10,> 500,"CC(C)c1ccccc1[C@@H]1CN(Cc2ccc(C3CC3)cc2)CCN1C1CC2(CCN(c3cc(Oc4cnc5[nH]ccc5c4)c(C(=O)NS(=O)(=O)c4ccc(NCC5(F)CCOCC5)c([N+](=O)[O-])c4)cc3F)CC2)C1 [compound 195, (R)-2-((1H-pyrrolo[2,3-b]pyrid-5-yl)oxy)-4-(2-(4-(4-cyclopropylbenzyl)-2-(2-isopropylphenyl)piperazin-1-yl)-7-azaspiro[3.5]non-7-yl)-5-fluoro-N-((4-(((4-fluorotetrahydro-2H-pyran-4-yl)methyl)amino)-3-nitrophenyl)sulfonyl)benzamide]"
< 10,–,"CC(C)c1ccccc1[C@@H]1CCCN1C1CC2(CCN(c3cc(Oc4cnc5[nH]ccc5c4)c(C(=O)NS(=O)(=O)c4cc([N+](=O)[O-])c(NCC5(F)CCN(CC(F)(F)F)CC5)c5[nH]cnc45)cc3F)CC2)C1 [compound 032, (S)-2-((1H-pyrrolo[2,3-b]pyrid-5-yl)oxy)-5-fluoro-N-((7-(((4-fluoro-1-(2,2,2-trifluoroethyl)piperid-4-yl)methyl)amino)-6-nitro-1H-benzo[d]imidazol-4-yl)sulfonyl)-4-(2-(2-(2-isopropylphenyl)pyrrolidin-1-yl)-7-azaspiro[3.5]non-7-yl)benzamide]"
< 10,–,"COc1ccc(CN2CCN(C3CC4(CCN(c5cc(Oc6cnc7[nH]ccc7c6)c(C(=O)NS(=O)(=O)c6cc([N+](=O)[O-])c(NCC7(F)CCOCC7)c7[nH]cnc67)cc5F)CC4)C3)C(c3ccccc3C(C)C)C2)cc1 (stereo not shown) [compound 078, 2-((1H-pyrrolo[2,3-b]pyrid-5-yl)oxy)-5-fluoro-N-((7-(((4-fluorotetrahydro-2H-pyran-4-yl)methyl)amino)-6-nitro-1H-benzo[d]imidazol-4-yl)sulfonyl)-4-(2-(2-(2-isopropylphenyl)-4-(4-methoxybenzyl)piperazin-1-yl)-7-azaspiro[3.5]non-7-yl)benzamide]"
< 10,–,"COc1ccc(CN2CCN(C3CC4(CCN(c5ccc(C(=O)NS(=O)(=O)c6cc([N+](=O)[O-])c(NCC7(F)CCN(C(C)C)CC7)c7[nH]cnc67)c(Oc6cnc7[nH]ccc7c6)c5)CC4)C3)C(c3ccccc3C(C)C)C2)cc1 (stereo not shown) [compound 048, 2-((1H-pyrrolo[2,3-b]pyrid-5-yl)oxy)-N-((7-(((4-fluoro-1-isopropylpiperid-4-yl)methyl)amino)-6-nitro-1H-benzo[d]imidazol-4-yl)sulfonyl)-4-(2-(2-(2-isopropylphenyl)-4-(4-methoxybenzyl)piperazin-1-yl)-7-azaspiro[3.5]non-7-yl)benzamide]"
